Experimental data taken from the supplement of paper PMC10307832.

Assays:
Experiment in all cases: relative viability (nuclei count vs DMSO), 5 days (fraction); higher = more cells survive
BAM7 + Luminespib = compound: CCOC1=CC=CC=C1N=NC2=C(NN(C2=O)C3=NC(=CS3)C4=CC=CC=C4)C [BAM7] + CCNC(=O)c1noc(-c2cc(C(C)C)c(O)cc2O)c1-c1ccc(CN2CCOCC2)cc1 [Luminespib] (partner 0.01 µM)
Summary of the method: (§1)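 Each reported value is a median over duplicate plates. It expresses relative viability: treated-well nuclei count divided by vehicle-well nuclei count. Lung cancer cell lines in 1536-well plates were dosed by pin tool a day after seeding, alone with one drug or with a fixed anchor-drug dose plus five library-drug doses (not always all listed) in √10 steps, and nuclei were counted after 5 days.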

BAM7 + Phenformin = compound: CCOC1=CC=CC=C1N=NC2=C(NN(C2=O)C3=NC(=CS3)C4=CC=CC=C4)C [BAM7] + N=C(N)NC(=N)NCCc1ccccc1 [Phenformin] (partner 250 µM)
Summary of the method: as §1

[1] = compound: CCn1c(-c2nonc2N)nc2c(C#CC(C)(C)O)ncc(OC[C@H]3CCCNC3)c21 + CCNC(=O)c1noc(-c2cc(C(C)C)c(O)cc2O)c1-c1ccc(CN2CCOCC2)cc1 [Luminespib] (partner 0.01 µM)
Summary of the method: as §1

[2] = compound: CCn1c(-c2nonc2N)nc2c(C#CC(C)(C)O)ncc(OC[C@H]3CCCNC3)c21 + N=C(N)NC(=N)NCCc1ccccc1 [Phenformin] (partner 250 µM)
Summary of the method: as §1

## UMC-11
BAM7 + Luminespib; first compound 0.5 µM
  relative viability: 1.07
BAM7 + Luminespib; first compound 5 µM
  relative viability: 1.11
BAM7 + Luminespib; first compound 15.81 µM
  relative viability: 1.1
BAM7 + Luminespib; first compound 50 µM
  relative viability: 0.991
BAM7 + Phenformin; first compound 0.5 µM
  relative viability: 0.336
BAM7 + Phenformin; first compound 5 µM
  relative viability: 0.371
BAM7 + Phenformin; first compound 15.81 µM
  relative viability: 0.311
BAM7 + Phenformin; first compound 50 µM
  relative viability: 0.312
[1]; first compound 0.01 µM
  relative viability: 0.97
[1]; first compound 0.03162 µM
  relative viability: 0.922
[1]; first compound 0.1 µM
  relative viability: 0.991
[1]; first compound 0.3162 µM
  relative viability: 0.956
[1]; first compound 1 µM
  relative viability: 1
[2]; first compound 0.01 µM
  relative viability: 0.35
[2]; first compound 0.03162 µM
  relative viability: 0.351
[2]; first compound 0.1 µM
  relative viability: 0.31
[2]; first compound 0.3162 µM
  relative viability: 0.32
[2]; first compound 1 µM
  relative viability: 0.301
